Experimental findings from PubChem BioAssay AID1259407 (Chemical Carcinogenesis Research Information System (CCRIS), 2018) are described below.

The source made the active and inactive calls. No rule for the calls is given here.

This series concerns CCRIS mutagenicity, Ames/micronucleus/aberration tests. Kind of series: CCRIS mutagenicity studies.

Consider `O=C(O)c1ccccn1`, for which the mutagenic call reads like this: (Test System: AMES SALMONELLA TYPHIMURIUM, Strain/Indicator: TA98, Metabolic Activation: HAMSTER, LIVER, S-9, AROCLOR 1254, Method: STANDARD PLATE) “inactive; negative”; (Test System: AMES SALMONELLA TYPHIMURIUM, Strain/Indicator: TA98, Metabolic Activation: NONE, Method: STANDARD PLATE) “inactive; negative”; (Test System: AMES SALMONELLA TYPHIMURIUM, Strain/Indicator: TA98, Metabolic Activation: RAT, LIVER, S-9, AROCLOR 1254, Method: STANDARD PLATE) “inactive; negative”; (Test System: AMES SALMONELLA TYPHIMURIUM, Strain/Indicator: TA100, Metabolic Activation: HAMSTER, LIVER, S-9, AROCLOR 1254, Method: STANDARD PLATE) “inactive; negative”; (Test System: AMES SALMONELLA TYPHIMURIUM, Strain/Indicator: TA100, Metabolic Activation: NONE, Method: STANDARD PLATE) “inactive; negative”; (Test System: AMES SALMONELLA TYPHIMURIUM, Strain/Indicator: TA100, Metabolic Activation: RAT, LIVER, S-9, AROCLOR 1254, Method: STANDARD PLATE) “inactive; negative”. The mutagenic call was “inactive; negative” (Test System: AMES SALMONELLA TYPHIMURIUM, Strain/Indicator: TA1535, Metabolic Activation: HAMSTER, LIVER, S-9, AROCLOR 1254, Method: STANDARD PLATE); “inactive; negative” (Test System: AMES SALMONELLA TYPHIMURIUM, Strain/Indicator: TA1535, Metabolic Activation: NONE, Method: STANDARD PLATE); “inactive; negative” (Test System: AMES SALMONELLA TYPHIMURIUM, Strain/Indicator: TA1535, Metabolic Activation: RAT, LIVER, S-9, AROCLOR 1254, Method: STANDARD PLATE); “inactive; negative” (Test System: AMES SALMONELLA TYPHIMURIUM, Strain/Indicator: TA1537, Metabolic Activation: HAMSTER, LIVER, S-9, AROCLOR 1254, Method: STANDARD PLATE); “inactive; negative” (Test System: AMES SALMONELLA TYPHIMURIUM, Strain/Indicator: TA1537, Metabolic Activation: NONE, Method: STANDARD PLATE); “inactive; negative” (Test System: AMES SALMONELLA TYPHIMURIUM, Strain/Indicator: TA1537, Metabolic Activation: RAT, LIVER, S-9, AROCLOR 1254, Method: STANDARD PLATE). Besides, the mutagenic call was “inactive; negative” (Test System: CHINESE HAMSTER OVARY CELLS, Strain/Indicator: CHO CELLS (HPRT)/6-THIOGUANINE, Metabolic Activation: NONE, Method: STANDARD PLATE); “inactive; negative” (Test System: MOUSE LYMPHOMA CELLS, Strain/Indicator: L5178Y TK+/-, Metabolic Activation: NONE, Method: TFT RESISTANCE); “inactive; negative” (Test System: MOUSE LYMPHOMA CELLS, Strain/Indicator: L5178Y TK+/-, Metabolic Activation: RAT, LIVER, S-9, AROCLOR 1254, Method: TFT RESISTANCE); “active; positive. reevaluation of results: equivocal” (Test System: MOUSE LYMPHOMA, Strain/Indicator: L5178Y (TK+/TK-), Metabolic Activation: NONE, Method: SUSPENSION/PLATE); “active; positive. reevaluation of results: equivocal” (Test System: MOUSE LYMPHOMA, Strain/Indicator: L5178Y (TK+/TK-), Metabolic Activation: RAT, LIVER, S-9, AROCLOR 1254, Method: SUSPENSION/PLATE).
